Values of other authors, collected in patent US8653307B2 (California Institute of Technology, priority 2011, dated 2014).
pIC50: −log10 of the molar value.

Assays:
PI3Kα = PI3Kα (Homo sapiens, UniProt P42336)
[1] = tested on: MDA-468 breast cancer line; settings: read-out: IC50 (cytotoxicity)
LoVo (human colon) cells = settings: read-out: IC50 (cytotoxicity)
CaCo (human colon) = CaCo (human colon) cells; read-out: IC50 (cytotoxicity)

Sequence of PI3Kα (P42336 whole entry): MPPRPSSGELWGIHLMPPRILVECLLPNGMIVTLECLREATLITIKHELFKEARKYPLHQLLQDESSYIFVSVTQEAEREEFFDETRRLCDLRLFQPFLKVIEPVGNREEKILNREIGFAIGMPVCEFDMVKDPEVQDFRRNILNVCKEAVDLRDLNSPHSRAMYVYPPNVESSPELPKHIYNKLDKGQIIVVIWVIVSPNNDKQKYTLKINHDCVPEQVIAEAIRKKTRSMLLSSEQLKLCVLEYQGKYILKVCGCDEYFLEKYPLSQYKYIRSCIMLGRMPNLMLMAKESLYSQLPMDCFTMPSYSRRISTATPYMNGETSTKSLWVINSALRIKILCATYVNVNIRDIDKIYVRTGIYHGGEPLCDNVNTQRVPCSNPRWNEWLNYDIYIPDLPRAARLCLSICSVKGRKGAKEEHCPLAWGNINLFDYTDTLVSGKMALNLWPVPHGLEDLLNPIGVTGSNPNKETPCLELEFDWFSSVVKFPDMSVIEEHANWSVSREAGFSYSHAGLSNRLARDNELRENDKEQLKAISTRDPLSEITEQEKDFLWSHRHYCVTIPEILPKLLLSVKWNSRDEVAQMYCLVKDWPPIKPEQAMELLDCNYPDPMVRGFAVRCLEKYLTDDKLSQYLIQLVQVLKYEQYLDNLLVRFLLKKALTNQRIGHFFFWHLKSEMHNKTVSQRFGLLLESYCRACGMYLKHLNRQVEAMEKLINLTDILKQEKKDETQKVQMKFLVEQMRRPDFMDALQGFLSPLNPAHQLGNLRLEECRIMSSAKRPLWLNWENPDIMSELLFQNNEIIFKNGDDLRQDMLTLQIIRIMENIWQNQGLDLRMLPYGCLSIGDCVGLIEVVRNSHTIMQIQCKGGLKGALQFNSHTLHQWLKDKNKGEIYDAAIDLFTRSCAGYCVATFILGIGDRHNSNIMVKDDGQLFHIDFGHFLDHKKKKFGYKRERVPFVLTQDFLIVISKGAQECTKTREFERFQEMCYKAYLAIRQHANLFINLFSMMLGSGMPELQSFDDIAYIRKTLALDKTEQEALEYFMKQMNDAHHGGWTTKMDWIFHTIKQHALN
Sequence of PI3Kα (P27986 whole entry partner): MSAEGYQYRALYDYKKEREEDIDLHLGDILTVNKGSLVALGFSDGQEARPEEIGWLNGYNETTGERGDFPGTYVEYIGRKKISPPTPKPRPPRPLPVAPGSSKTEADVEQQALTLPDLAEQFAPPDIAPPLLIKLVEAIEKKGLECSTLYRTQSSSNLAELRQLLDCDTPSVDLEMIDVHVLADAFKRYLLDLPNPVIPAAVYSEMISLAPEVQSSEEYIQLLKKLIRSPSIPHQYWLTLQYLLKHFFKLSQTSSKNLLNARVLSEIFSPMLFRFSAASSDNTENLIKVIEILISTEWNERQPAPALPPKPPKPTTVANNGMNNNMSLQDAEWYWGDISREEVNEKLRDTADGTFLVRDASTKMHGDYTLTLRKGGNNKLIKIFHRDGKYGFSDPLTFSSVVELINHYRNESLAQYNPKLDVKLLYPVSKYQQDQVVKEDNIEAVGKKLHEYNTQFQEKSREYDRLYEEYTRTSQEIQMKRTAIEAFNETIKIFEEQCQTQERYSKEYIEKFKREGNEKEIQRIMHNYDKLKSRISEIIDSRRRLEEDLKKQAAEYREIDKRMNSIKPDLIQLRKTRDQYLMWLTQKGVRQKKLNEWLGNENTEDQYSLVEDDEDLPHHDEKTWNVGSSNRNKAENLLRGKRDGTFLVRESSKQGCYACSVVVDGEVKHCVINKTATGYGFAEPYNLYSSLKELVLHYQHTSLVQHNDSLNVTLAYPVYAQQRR

O=c1cc(N2CCOCC2)oc2c(-c3ccccc3)cccc12 [LY294002]
selectivity among PI3Ks / related enzymes (in words) (PI3Kα): somewhat selective

liphagal
pIC50 [1]: 5.80
pIC50 (LoVo (human colon) cells): 6.24
pIC50 (CaCo (human colon)): 6.17
